One may read the TD50 as the 50% point of the dose-response relation for the toxic effect studied.

The series deals with rodent lifetime carcinogenesis bioassay, tumor incidence TD50. Nature of the series: chronic cancer bioassays in animals – CPDB, compiled studies (AID 1745844).

Structures are written as SMILES. The source made the active and inactive calls. No rule for the calls is given here.

For `COc1ccc(N)cc1N`, the TD50 reads like this: (mouse, strain B6C3F1, females, in feed, site: all sites, lesion: lymphoma, dosed 78 weeks, study length 96 weeks) 262 mg/kg/day; (mouse, strain B6C3F1, females, in feed, site: any site (literature study), lesion: several types, types named in the paper, dosed 78 weeks, study length 96 weeks) 311 mg/kg/day; (mouse, strain B6C3F1, females, in feed, site: liver, lesion: hepatocellular adenoma + hepatocellular carcinoma + neoplastic nodule, dosed 78 weeks, study length 96 weeks) 7350 mg/kg/day; (mouse, strain B6C3F1, females, in feed, site: lung, lesion: alveolar/bronchiolar adenoma + alveolar/bronchiolar carcinoma, dosed 78 weeks, study length 96 weeks) 10900 mg/kg/day; (mouse, strain B6C3F1, females, in feed, site: thyroid gland, lesion: follicular-cell adenoma + follicular-cell carcinoma, dosed 78 weeks, study length 96 weeks) 1060 mg/kg/day; (mouse, strain B6C3F1, females, in feed, site: thyroid gland, lesion: follicular-cell adenoma, dosed 78 weeks, study length 96 weeks) 1450 mg/kg/day. The TD50 is 354 mg/kg/day (mouse, strain B6C3F1, males, in feed, site: any site (literature study), lesion: several types, types named in the paper, dosed 78 weeks, study length 96 weeks); 926 mg/kg/day (mouse, strain B6C3F1, males, in feed, site: liver, lesion: hepatocellular adenoma + hepatocellular carcinoma + neoplastic nodule, dosed 78 weeks, study length 96 weeks); 2560 mg/kg/day (mouse, strain B6C3F1, males, in feed, site: lung, lesion: alveolar/bronchiolar adenoma + alveolar/bronchiolar carcinoma, dosed 78 weeks, study length 96 weeks); 791 mg/kg/day (mouse, strain B6C3F1, males, in feed, site: thyroid gland, lesion: follicular-cell adenoma, dosed 78 weeks, study length 96 weeks); 665 mg/kg/day (rat, strain Fischer 344, females, in feed, site: Zymbal's gland, lesion: sebaceous adenocarcinoma, dosed 78 weeks, study length 107 weeks); 181 mg/kg/day (rat, strain Fischer 344, females, in feed, site: any site (literature study), lesion: several types, types named in the paper, dosed 78 weeks, study length 107 weeks). The TD50 was 67.3 mg/kg/day (rat, strain Fischer 344, females, in feed, site: any site (literature study), lesion: several types, types named in the paper, dosed 83 weeks, study length 86 weeks); 408 mg/kg/day (rat, strain Fischer 344, females, in feed, site: clitoral gland + uterus, endometrium, lesion: carcinoma, NOS + adenocarcinoma, NOS + papillary carcinoma, dosed 78 weeks, study length 107 weeks); 416 mg/kg/day (rat, strain Fischer 344, females, in feed, site: clitoral gland, lesion: adenoma, NOS + carcinoma, NOS + cystadenoma, NOS + squamous-cell carcinoma + squamous-cell papilloma, dosed 78 weeks, study length 107 weeks); 113 mg/kg/day (rat, strain Fischer 344, females, in feed, site: clitoral gland, lesion: several types, types named in the paper, dosed 83 weeks, study length 86 weeks); 162 mg/kg/day (rat, strain Fischer 344, females, in feed, site: clitoral gland, lesion: squamous-cell carcinoma, sebaceous, dosed 83 weeks, study length 86 weeks); 14500 mg/kg/day (rat, strain Fischer 344, females, in feed, site: liver, lesion: hepatocellular adenoma + hepatocellular carcinoma + neoplastic nodule, dosed 78 weeks, study length 107 weeks). Moreover, the TD50 runs as follows: (rat, strain Fischer 344, females, in feed, site: mammary gland, lesion: several types, types named in the paper, dosed 83 weeks, study length 86 weeks) 1290 mg/kg/day; (rat, strain Fischer 344, females, in feed, site: thyroid gland + Zymbal's gland, lesion: adenocarcinoma, NOS + follicular-cell carcinoma + papillary cystadenocarcinoma, NOS + sebaceous adenocarcinoma, dosed 78 weeks, study length 107 weeks) 301 mg/kg/day; (rat, strain Fischer 344, females, in feed, site: thyroid gland, lesion: adenocarcinoma, NOS + follicular-cell carcinoma + papillary cystadenocarcinoma, NOS, dosed 78 weeks, study length 107 weeks) 425 mg/kg/day; (rat, strain Fischer 344, females, in feed, site: thyroid gland, lesion: follicular-cell adenoma, dosed 83 weeks, study length 86 weeks) 296 mg/kg/day; (rat, strain Fischer 344, females, in feed, site: thyroid gland, lesion: several types, types named in the paper, dosed 83 weeks, study length 86 weeks) 162 mg/kg/day; (rat, strain Fischer 344, males, in feed, site: any site (literature study), lesion: several types, types named in the paper, dosed 78 weeks, study length 107 weeks) 135 mg/kg/day. The TD50 reads like this: (rat, strain Fischer 344, males, in feed, site: ear canal + ear + Zymbal's gland, lesion: sebaceous adenocarcinoma + squamous-cell carcinoma, dosed 78 weeks, study length 107 weeks) 709 mg/kg/day; (rat, strain Fischer 344, males, in feed, site: ear canal + ear + preputial gland + skin + thyroid gland + Zymbal's gland, lesion: sebaceous adenocarcinoma + squamous-cell carcinoma + adenoma, NOS + carcinoma, NOS + cystadenoma, NOS + papillary adenoma + basal-ce, dosed 78 weeks, study length 107 weeks) 72.6 mg/kg/day; (rat, strain Fischer 344, males, in feed, site: liver, lesion: hepatocellular adenoma + hepatocellular carcinoma + neoplastic nodule, dosed 78 weeks, study length 107 weeks) 1610 mg/kg/day; (rat, strain Fischer 344, males, in feed, site: preputial gland, lesion: adenoma, NOS + carcinoma, NOS + cystadenoma, NOS + papillary adenoma, dosed 78 weeks, study length 107 weeks) 351 mg/kg/day; (rat, strain Fischer 344, males, in feed, site: preputial gland, lesion: adenoma, NOS + cystadenoma, NOS + papillary adenoma, dosed 78 weeks, study length 107 weeks) 530 mg/kg/day; (rat, strain Fischer 344, males, in feed, site: skin, lesion: basal-cell carcinoma + sebaceous adenocarcinoma + squamous-cell carcinoma, dosed 78 weeks, study length 107 weeks) 358 mg/kg/day. Also, the TD50 is, setting by setting: (rat, strain Fischer 344, males, in feed, site: thyroid gland, lesion: adenocarcinoma, NOS + follicular-cell carcinoma + papillary adenocarcinoma + papillary cystadenocarcinoma, NOS, dosed 78 weeks, study length 107 weeks) 192 mg/kg/day; (rat, strain Fischer 344, males, in feed, site: thyroid gland, lesion: adenocarcinoma, NOS, dosed 78 weeks, study length 107 weeks) 252 mg/kg/day; (rat, strain Fischer 344, males, in feed, site: thyroid gland, lesion: c-cell adenoma + c-cell carcinoma, dosed 78 weeks, study length 107 weeks) 319 mg/kg/day.
In the case of `Clc1ccccc1`, the TD50 reads like this: (mouse, strain B6C3F1, females, by gavage, site: any site (literature study), lesion: several types, types named in the paper, dosed 103 weeks, study length 105 weeks) 373 mg/kg/day (inactive); (mouse, strain B6C3F1, females, by gavage, site: liver, lesion: hepatocellular adenoma + hepatocellular carcinoma + neoplastic nodule, dosed 103 weeks, study length 105 weeks) 235 mg/kg/day; (mouse, strain B6C3F1, females, by gavage, site: lung, lesion: alveolar/bronchiolar adenoma + alveolar/bronchiolar carcinoma, dosed 103 weeks, study length 105 weeks) 623 mg/kg/day; (mouse, strain B6C3F1, males, by gavage, site: any site (literature study), lesion: several types, types named in the paper, dosed 103 weeks, study length 105 weeks) 60.1 mg/kg/day (inactive); (mouse, strain B6C3F1, males, by gavage, site: liver, lesion: hepatocellular adenoma + hepatocellular carcinoma + neoplastic nodule, dosed 103 weeks, study length 105 weeks) 382 mg/kg/day; (mouse, strain B6C3F1, males, by gavage, site: lung, lesion: alveolar/bronchiolar adenoma + alveolar/bronchiolar carcinoma, dosed 103 weeks, study length 105 weeks) 190 mg/kg/day. Besides, the TD50 was 867 mg/kg/day (rat, strain Fischer 344, females, by gavage, site: liver, lesion: hepatocellular adenoma + hepatocellular carcinoma + neoplastic nodule, dosed 103 weeks, study length 104 weeks); 520 mg/kg/day (inactive) (rat, strain Fischer 344, females, by gavage, site: parathyroid + thyroid gland + thyroid follicle, lesion: adenoma, NOS + follicular-cell carcinoma + cystadenoma, NOS, dosed 103 weeks, study length 104 weeks); 190 mg/kg/day (rat, strain Fischer 344, males, by gavage, site: any site (literature study), lesion: several types, types named in the paper, dosed 103 weeks, study length 104 weeks); 328 mg/kg/day (rat, strain Fischer 344, males, by gavage, site: liver, lesion: hepatocellular adenoma + hepatocellular carcinoma + neoplastic nodule, dosed 103 weeks, study length 104 weeks); 247 mg/kg/day (rat, strain Fischer 344, males, by gavage, site: liver, lesion: neoplastic nodule, dosed 103 weeks, study length 104 weeks).
`CN=C(NC#N)NCCSCc1nc[nH]c1C`: the TD50 (mouse, strain C57BL/6, females, in drinking water, site: liver, lesion: several types, types named in the paper, dosed 126 weeks, study length 126 weeks) is 52200 mg/kg/day (inactive). Besides, the carcinogen call by setting is: (mouse, strain C57BL/6, females, in drinking water, site: lung, lesion: one or several types, types not named, dosed 126 weeks, study length 126 weeks) “negative (inactive)”; (rat, strain Charles River CD (Sprague-Dawley), females, by gavage, site: gastric mucosa, lesion: carcinoid tumor, malignant, dosed 105 weeks, study length 105 weeks) “negative (inactive)”; (rat, strain Charles River CD (Sprague-Dawley), males, by gavage, site: gastric mucosa, lesion: carcinoid tumor, malignant, dosed 105 weeks, study length 105 weeks) “negative (inactive)”.
Turning to `F`, the carcinogen call is, setting by setting: (mouse, strain B6C3F1, females, in drinking water, site: any site (literature study), lesion: several types, types named in the paper, dosed 103 weeks, study length 104 weeks) “negative (inactive)”; (mouse, strain B6C3F1, males, in drinking water, site: any site (literature study), lesion: several types, types named in the paper, dosed 103 weeks, study length 104 weeks) “negative (inactive)”; (mouse, strain Charles River CD1, both sexes, in drinking water, site: any site (literature study), lesion: malignant tumor, dosed 129 weeks, study length 129 weeks) “negative (inactive)”; (mouse, strain Charles River CD1, both sexes, in drinking water, site: any site (literature study), lesion: one or several types, types not named, dosed 129 weeks, study length 129 weeks) “negative (inactive)”; (mouse, strain Charles River CD1, both sexes, in drinking water, site: liver, lesion: one or several types, types not named, dosed 129 weeks, study length 129 weeks) “negative (inactive)”; (mouse, strain Charles River CD1, both sexes, in drinking water, site: lung, lesion: one or several types, types not named, dosed 129 weeks, study length 129 weeks) “negative (inactive)”. The carcinogen call (mouse, strain DBA, females, in feed, site: mammary gland, lesion: carcinoma, dosed 90 weeks, study length 90 weeks) was “negative (inactive)”. Also, the TD50 is 73.9 mg/kg/day (inactive) (rat, strain Fischer 344, females, in drinking water, site: any site (literature study), lesion: several types, types named in the paper, dosed 103 weeks, study length 104 weeks); 147 mg/kg/day (rat, strain Fischer 344, males, in drinking water, site: any site (literature study), lesion: several types, types named in the paper, dosed 103 weeks, study length 104 weeks); 82.7 mg/kg/day (rat, strain Fischer 344, males, in drinking water, site: coccyx + humerus + subcutaneous tissue + vertebra, lesion: osteosarcoma, dosed 103 weeks, study length 104 weeks); 109 mg/kg/day (rat, strain Fischer 344, males, in drinking water, site: coccyx + humerus + vertebra, lesion: osteosarcoma, dosed 103 weeks, study length 104 weeks).
In the case of `CN(N=O)c1ccccn1`, the TD50 by setting is: (rat, strain BD VI, females, by gavage, site: any site (literature study), lesion: benign tumor, dosed 72 weeks, study length 72 weeks) 3.05 mg/kg/day; (rat, strain BD VI, females, by gavage, site: any site (literature study), lesion: malignant tumor, dosed 72 weeks, study length 72 weeks) 0.668 mg/kg/day; (rat, strain BD VI, females, by gavage, site: any site (literature study), lesion: several types, types named in the paper, dosed 72 weeks, study length 72 weeks) 0.28 mg/kg/day; (rat, strain BD VI, females, by gavage, site: esophagus, lesion: several types, types named in the paper, dosed 72 weeks, study length 72 weeks) 0.214 mg/kg/day.

The values are drawn from PubChem BioAssay AID1745844 (Carcinogenic Potency Database (CPDB), 2022).
